Experimental data as given in patent publication US8802597B2, “Herbicidal pyrimidines” (E I du Pont de Nemours and Company, priority 2003, dated 2014).
Like-named read-outs stand apart in the source and are kept apart here.

Key:
Assay type in all cases: in vivo
[1] = system: barnyardgrass (Echinochloa crus-galli); experiment: Test A pre/postemergence; settings: Echinochloa crus-galli, 240 h, read-out: Plant response rating, Barnyardgrass; for pest or weed control at 125 g/ha: 125 g ai/ha; for pest or weed control at 500 g/ha: 500 g ai/ha
In short: (§1)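 Greenhouse herbicide test with preemergence directed soil spray and postemergence foliar spray at the 1- to 2-leaf stage; visual control rating 0–100 versus untreated at ~10 days.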

[2] = system: crabgrass (Digitaria sanguinalis); experiment: Test A pre/postemergence; settings: Digitaria sanguinalis, 240 h, read-out: Plant response rating, Crabgrass; for pest or weed control at 125 g/ha: 125 g ai/ha; for pest or weed control at 500 g/ha: 500 g ai/ha
In short: as §1

[3] = system: giant foxtail (Setaria faberi); experiment: Test A pre/postemergence; settings: Setaria faberi, 240 h, read-out: Plant response rating, Foxtail, Giant; for pest or weed control at 125 g/ha: 125 g ai/ha; for pest or weed control at 500 g/ha: 500 g ai/ha
In short: as §1

[4] = system: morningglory (Ipomoea spp.); experiment: Test A pre/postemergence; settings: Ipomoea, 240 h, read-out: Plant response rating, Morningglory; for pest or weed control at 125 g/ha: 125 g ai/ha; for pest or weed control at 500 g/ha: 500 g ai/ha
In short: as §1

[5] = system: redroot pigweed (Amaranthus retroflexus); experiment: Test A pre/postemergence; settings: Amaranthus retroflexus, 240 h, read-out: Plant response rating, Pigweed; for pest or weed control at 125 g/ha: 125 g ai/ha; for pest or weed control at 500 g/ha: 500 g ai/ha
In short: as §1

[6] = system: velvetleaf (Abutilon theophrasti); experiment: Test A pre/postemergence; settings: Abutilon theophrasti, 240 h, read-out: Plant response rating, Velvetleaf; for pest or weed control at 125 g/ha: 125 g ai/ha; for pest or weed control at 500 g/ha: 500 g ai/ha
In short: as §1

[7] = system: cocklebur (Xanthium strumarium); experiment: Test C pre/postemergence; settings: Xanthium strumarium; for pest or weed control at 31 g/ha: 31 g ai/ha; for pest or weed control at 62 g/ha: 62 g ai/ha; for pest or weed control at 125 g/ha: 125 g ai/ha
In short: (§2)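 Pre: seeds planted, sprayed same day. Post: 1- to 4-leaf plants (2–18 cm). Formulation: non-phytotoxic solvent + surfactant. Greenhouse 12–14 d; visual % control vs untreated, 0–100.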

[8] = system: crabgrass (Digitaria sanguinalis); experiment: Test C pre/postemergence; settings: Digitaria sanguinalis; for pest or weed control at 31 g/ha: 31 g ai/ha; for pest or weed control at 62 g/ha: 62 g ai/ha; for pest or weed control at 125 g/ha: 125 g ai/ha
In short: as §2

[9] = system: johnsongrass (Sorghum halepense); experiment: Test C pre/postemergence; settings: Sorghum halepense; for pest or weed control at 31 g/ha: 31 g ai/ha; for pest or weed control at 62 g/ha: 62 g ai/ha; for pest or weed control at 125 g/ha: 125 g ai/ha
In short: as §2

kochia (Kochia scoparia) = experiment: Test C pre/postemergence; settings: Bassia scoparia; for pest or weed control at 31 g/ha: 31 g ai/ha; for pest or weed control at 62 g/ha: 62 g ai/ha; for pest or weed control at 125 g/ha: 125 g ai/ha
In short: as §2

[10] = system: pigweed (Amaranthus retroflexus); experiment: Test C pre/postemergence; settings: Amaranthus retroflexus; for pest or weed control at 31 g/ha: 31 g ai/ha; for pest or weed control at 62 g/ha: 62 g ai/ha
In short: as §2

[11] = post-emergence, Postemergence, 0 to 100 scale (0 no effect, 100 complete control)
[12] = pre-emergence, Preemergence, 0 to 100 scale where 0 is no effect and 100 is complete control, approximately ten days
[13] = post-emergence, Postemergence, read-out: Plant response rating (scale of 0 to 100), Cocklebur
[14] = pre-emergence, Preemergence, scale 0 to 100, 0 no effect, 100 complete control, read-out: Plant response rating, Cocklebur
[15] = post-emergence, Postemergence, read-out: Plant response rating (scale of 0 to 100), Crabgrass
[16] = pre-emergence, Preemergence, scale 0 to 100, 0 no effect, 100 complete control, read-out: Plant response rating, Crabgrass
[17] = post-emergence, Postemergence, read-out: Plant response rating (scale of 0 to 100), Johnsongrass
[18] = pre-emergence, Preemergence, scale 0 to 100, 0 no effect, 100 complete control, read-out: Plant response rating, Johnsongrass
[19] = post-emergence, Postemergence, read-out: Plant response rating (scale of 0 to 100), Kochia
[20] = pre-emergence, Preemergence, scale 0 to 100, 0 no effect, 100 complete control, read-out: Plant response rating, Kochia
[21] = post-emergence, Postemergence, read-out: Plant response rating (scale of 0 to 100), Pigweed
[22] = pre-emergence, Preemergence, scale 0 to 100, 0 no effect, 100 complete control, read-out: Plant response rating, Pigweed

Nc1nc(C2CC2)nc(C(=O)OCc2ccccc2)c1Cl [Compound 78, phenylmethyl 6-amino-5-chloro-2-cyclopropyl-4-pyrimidinecarboxylate]
5%: pest or weed control at 31 g/ha [8, 16]
20%: pest or weed control at 125 g/ha ([9]; post-emergence, Postemergence, scale 0 to 100 (0 no effect, 100 complete control), read-out: Johnsongrass plant response rating) | pest or weed control at 62 g/ha [9, 18]
10%: pest or weed control at 125 g/ha [3, 12] | pest or weed control at 31 g/ha [9, 17] | pest or weed control at 62 g/ha [9, 17] | pest or weed control at 31 g/ha [9, 18]
90%: pest or weed control at 500 g/ha [1, 11] | pest or weed control at 500 g/ha [4, 11] | pest or weed control at 125 g/ha [4, 12] | pest or weed control at 500 g/ha [5, 12] | pest or weed control at 500 g/ha [6, 11] | pest or weed control at 31 g/ha [7, 13] | pest or weed control at 62 g/ha [7, 14] | pest or weed control at 125 g/ha ([7]; pre-emergence, Preemergence, scale 0 to 100, read-out: Plant response rating, Cocklebur) | pest or weed control at 62 g/ha [8, 15] | pest or weed control at 125 g/ha ([8]; post-emergence, Postemergence, scale 0 to 100 (0 no effect, 100 complete control), read-out: Crabgrass plant response rating) | pest or weed control at 250 g/ha ([8]; post-emergence, Postemergence, 250 g ai/ha, scale 0 to 100, read-out: Plant response rating, Crabgrass) | pest or weed control at 31 g/ha (kochia (Kochia scoparia); [19]) | pest or weed control at 62 g/ha (kochia (Kochia scoparia); [19])
75%: pest or weed control at 500 g/ha [1, 12] | pest or weed control at 125 g/ha [5, 12] | pest or weed control at 125 g/ha [6, 11]
80%: pest or weed control at 125 g/ha [1, 11] | pest or weed control at 500 g/ha [2, 11] | pest or weed control at 500 g/ha [3, 11] | pest or weed control at 125 g/ha [4, 11] | pest or weed control at 125 g/ha [6, 12] | pest or weed control at 31 g/ha (kochia (Kochia scoparia); [20]) | pest or weed control at 62 g/ha [10, 21]
70%: pest or weed control at 125 g/ha [2, 11] | pest or weed control at 500 g/ha [2, 12] | pest or weed control at 125 g/ha [3, 11] | pest or weed control at 31 g/ha [7, 14] | pest or weed control at 16 g/ha (kochia (Kochia scoparia); pre-emergence, Preemergence, 16 g ai/ha, scale 0 to 100, 0 no effect, 100 complete control, read-out: Plant response rating, Kochia) | pest or weed control at 62 g/ha [10, 22]
60%: pest or weed control at 31 g/ha [10, 22]
55%: pest or weed control at 125 g/ha [2, 12] | pest or weed control at 16 g/ha ([7]; pre-emergence, Preemergence, 16 g ai/ha, scale 0 to 100, 0 no effect, 100 complete control, read-out: Plant response rating, Cocklebur) | pest or weed control at 31 g/ha [8, 15] | pest or weed control at 16 g/ha ([10]; pre-emergence, Preemergence, 16 g ai/ha, scale 0 to 100, 0 no effect, 100 complete control, read-out: Plant response rating, Pigweed)
100%: pest or weed control at 500 g/ha [4, 12] | pest or weed control at 62 g/ha [7, 13] | pest or weed control at 125 g/ha ([7]; post-emergence, Postemergence, scale 0 to 100 (0 no effect, 100 complete control), read-out: Cocklebur plant response rating) | pest or weed control at 250 g/ha ([7]; post-emergence, Postemergence, 250 g ai/ha, scale 0 to 100, read-out: Plant response rating, Cocklebur) | pest or weed control at 62 g/ha (kochia (Kochia scoparia); [20]) | pest or weed control at 125 g/ha (kochia (Kochia scoparia); pre-emergence, Preemergence, scale 0 to 100, read-out: Plant response rating, Kochia) | pest or weed control at 250 g/ha ([10]; post-emergence, Postemergence, 250 g ai/ha, scale 0 to 100, read-out: Plant response rating, Pigweed)
65%: pest or weed control at 500 g/ha [3, 12]
95%: pest or weed control at 500 g/ha [5, 11] | pest or weed control at 125 g/ha (kochia (Kochia scoparia); post-emergence, Postemergence, scale 0 to 100 (0 no effect, 100 complete control), read-out: Kochia plant response rating) | pest or weed control at 250 g/ha (kochia (Kochia scoparia); post-emergence, Postemergence, 250 g ai/ha, scale 0 to 100, read-out: Plant response rating, Kochia) | pest or weed control at 125 g/ha ([10]; post-emergence, Postemergence, 125 g ai/ha, scale 0 to 100 (0 no effect, 100 complete control), read-out: Pigweed plant response rating)
45%: pest or weed control at 125 g/ha [1, 12] | pest or weed control at 125 g/ha ([8]; pre-emergence, Preemergence, scale 0 to 100, read-out: Plant response rating, Crabgrass)
85%: pest or weed control at 125 g/ha [5, 11] | pest or weed control at 500 g/ha [6, 12]
0%: pest or weed control at 16 g/ha ([8]; pre-emergence, Preemergence, 16 g ai/ha, scale 0 to 100, 0 no effect, 100 complete control, read-out: Plant response rating, Crabgrass) | pest or weed control at 16 g/ha ([9]; pre-emergence, Preemergence, 16 g ai/ha, scale 0 to 100, 0 no effect, 100 complete control, read-out: Plant response rating, Johnsongrass)
50%: pest or weed control at 125 g/ha ([9]; pre-emergence, Preemergence, scale 0 to 100, read-out: Plant response rating, Johnsongrass) | pest or weed control at 31 g/ha [10, 21]
40%: pest or weed control at 62 g/ha [8, 16] | pest or weed control at 250 g/ha ([9]; post-emergence, Postemergence, 250 g ai/ha, scale 0 to 100, read-out: Plant response rating, Johnsongrass)
